Values quoted from earlier work in patent publication US20120316143A1, “Ophthalmic composition” (priority 2009, published 2012).
Like-named read-outs stand apart in the source and are kept apart here.

Assays:
[1] = test system: patients; settings: applied topically as a 1% suspension
[2] = test system: rabbits made ocularly hypertensive with dexamethasone
[3] = test system: normal subjects; patients with ocular hypertension

SMILES: C[C@]12CC[C@@H](O)C[C@H]1CC[C@@H]1[C@@H]2[C@@H](O)C[C@@]2(C)[C@H]1CC[C@]2(O)C(=O)CO [3-α-5-β-Tetrahydrocortisol]
- effect on intraocular pressure [1]: lower intraocular pressure

SMILES: C[C@]12CC[C@@H](O)C[C@H]1CC[C@@H]1[C@@H]2[C@@H](O)C[C@@]2(C)[C@H]1CC[C@]2(O)C(=O)CO [Tetrahydrocortisol, tetrahydrocortisol]
- effect on intraocular pressure (IOP) [2]: lower intraocular pressure

SMILES: CC1(C)[C@@H](OC(=O)CCC(=O)O)CC[C@]2(C)[C@H]3C(=O)C=C4[C@@H]5C[C@@](C)(C(=O)O)CC[C@]5(C)CC[C@@]4(C)[C@]3(C)CC[C@@H]12 [Carbenoxolone]
- decrease in intraocular pressure ([3]; normal subjects): 20%
- decrease in intraocular pressure ([3]; patients with ocular hypertension): 20%
